The text below walks through data of patent publication US20150328169A1, “POLYMERIC PARTICLES-BASED TEMOZOLOMIDE DOSAGE FORM” (OY FILANA LTD, priority 2012, published 2015).

One series deals with Balb/c mice. Kind of series: Acute toxicity, single intraperitoneal dose, Litchfield-Wilcoxon. The format is in vivo. As to conditions: i.p. single dose; for LD16 / LD84 / LD100: 14th day. The procedure:
(§1) The comparative analysis of the acute toxic action of the temozolomide substance and of the polymeric composition based thereon (Composition 1 as in Example 1) was performed on male and female Balb/c mice weighing 19-21 g as of the time of testing, 6 animals in each group. The mice were kept in standard cages No. 4, in the conditions of unlimited access to water and food, at natural lighting changes. Testing the toxic action of the drugs started upon a two-week isolation period of the animals. The drug was administered intraperitoneally, as a single dose. Water for injection was used as a medium. Upon the drug administration, the animals were continuously monitored for 24 hours. The total observation time was 28 days. According to the research results, the LD50 values were calculated as per the state of animals on the 14th day upon the administration of the drugs. The value of the mean lethal dose (LD50) was determined by Litchfield-Wilcoxon method [Belenky M. L. Elementy kolichestvennoy otsenki farmakologicheskogo effekta [In Russian: Elements of Drug-Induced Effect Quantitative Estimation]/2-e izd. pererab. i dop. L.: Medgiz, 1963. p. 81-106].

Assay in series [1]: as above
The format is in vivo, mice. As to conditions: mouse, in vivo, ip, i.p. single dose, 14th day. The procedure: as §1

For a further series, the system named is B16 melanoma tumor. As to the kind of experiment: Antitumor activity in vivo, solid tumor of B-16 mouse melanoma. The note with it: 40 mg/kg, 9th day of treatment. Details: species or system mice.
For series [2] the following is noted: clinical trials; cited from earlier work.

On to `Cn1nnc2c(C(N)=O)ncn2c1=O` [Temozolomide Substance, 8-carbamoyl-3-methyl-imidazo[5,1-d]-1,2,3,5-tetrazin-4-(3H)-one], for which, in the series with Balb/c mice (female Balb/c mice), the Toxic dose range entry is reported as “Toxic dose range was 426.5-526.7 mg/kg”, the LD16 entry was “LD16 426.5 mg/kg”, the LD84 result is “LD84 506.7 mg/kg” and the LD100 result is on record as “LD100 526.7 mg/kg”. In addition, in the series with Balb/c mice (male Balb/c mice), the Toxic dose range entry was “Toxic dose range was 424.0-543.5 mg/kg”, the LD16 entry is given as “LD16 424.0 mg/kg”, the LD84 result is listed as “LD84 519.6 mg/kg” and the LD100 entry is given as “LD100 543.5 mg/kg”. The LD50 at 14 days in series [1] (female Balb/c mice) turned out to be 467 mg/kg. The compound further came in with an LD50 at 14 days in series [1] (male Balb/c mice) of 472 mg/kg. The “tumor growth inhibition (TGI)” value with B16 melanoma tumor is reported as 90%. The half lifetime in series [2] is reported as 1.8 h.
